Tests used:
[1] = type: in vitro ADME, human
Procedure: Standard Franz diffusion cells (15 mm i.d., o-ring design) were manufactured by Crown Glass Inc., Somerville, N.J. The cell caps were modified with ground glass joints to fit 14/20 ground glass stoppers. A Franz diffusion cell drive console F-DCD-9 was also manufactured by Crown Glass. A Vandercamp 2500 recirculating water bath was used to maintain the cells at 37° C. Split thickness human allograph tissues (0.015 in. thickness), thigh back area, was obtained from the Tissue Transplant Bank, St. Agnes Medical Center, Philadelphia, Pa. Samples were counted in a Packard Auto-Gamma Scintillation Spectrometer.
Sterile Saline (0.9% Sodium Chloride USP, Travenol, NDC 0338-0049-04 lot co56747), Albumin (Bovine, fraction v, Sigma A-4503 lot 127F-0877), N-Methyl-2-pyrrolidone (Aldrich 99+ % Cat No. 24,279-9 lot 04402TP), Neomycin Sulfate (Sigma N-1876 lot 66F-0151), absolute ethanol (Midwest Solvents Company of Illinois).
Human allograph tissue, which had been stored at -70° C., was thawed and immediately mounted in a Franz type diffusion cell. The receptor chamber was filled with normal saline containing 2% albumin and 0.05% neomycin sulfate. Each cell was maintained at 37° C. and stirred at 600 rpm. After the cells had been allowed to equilibrate for 4 to 6 hours, 200 ul of a saturated ethanolic solution of 5-chloro-8-hydroxy-7-[^125I]-iodoquinoline (approx. 70 uCi, 0.44 mg) was applied to the donor side of each cell. This was immediately followed by either 200 μl of absolute ethanol for the control cells, 200 μl of 50% (w/v 3-hydroxy-N-methylpyrrolidone in ethanol or an equimolar ethanolic solution of N-methylpyrrolidone (43.1% w/v). The cells were then capped with ground glass stoppers. At various time intervals, over an 80-100 hour period, the entire contents of the receptor chamber was removed with a 10 cc syringe and placed into a vial. The receptor chamber was then refilled with fresh solution. After the last collection these vials were placed in a well-type gamma counter and counted for I-125 activity.
At the time of dosing 200 μl of the saturated 5-chloro-8-hydroxy-7-[^125 I]-iodoquinoline solution was placed into separate vials to calculate the amount of activity (dose) applied to the skin.
In this example, 3-hydroxy-N-methyl pyrrolidone was tested for its use as a percutaneous penetration enhancer. In vitro studies were carried out using Franz type diffusion cells. The penetration enhancing properties of 3-hydroxy-N-methylpyrrolidone was compared to N-methyl pyrrolidone, a compound known to enhance the penetration of drugs through the skin.
For these in vitro studies radioiodinated 5-chloro-8-hydroxy-7-iodoquinoline was chosen as a model drug. This drug, known as Clioquinol USP, is currently marketed by Ciba (Ciba Pharmaceutical Company, 556 Morris Avenue, Summit, N.J. 07901), as a topical antibacterial/antifungal agent trade named Vioform™. […] This radiolabeled marker is conveniently used to follow the penetration of the drug through the skin.
Franz diffusion cells are designed to mimic in vivo conditions. A finite dose of drug is applied to the stratum corneum side of the skin and penetration is followed by analyzing for the drug in the receptor phase underneath. In these studies the amount of drug crossing the skin barrier is estimated by counting total radioactivity in the receptor phase.
In a preliminary study, the transdermal absorption of Clioquinol was evaluated in the presence of 3-hydroxy-N-methylpyrrolidone, N-methylpyrrolidone, and in the absence of enhancer. An ethanolic solution of [I-131]-Clioquinol was applied to 3 cells followed by either ethanol (control), 50% 3-hydroxy-N-methylpyrrolidone in ethanol or an equimolar solution of N-methylpyrrolidone. In FIG. 1, the percent penetration of 5-chloro-8-hydroxy-7-[^131 I]-iodoquinoline through human skin is illustrated. The amount of 5-chloro-8-hydroxy-7-[^131 I]-iodoquinolineactivity applied is equal to 100%.
The study was repeated using I-125 labeled Clioquinol. […]

[2] = cited from earlier work
[3] = Metabolism of N-methylpyrrolidone, metabolite excreted in urine
Source text: As pointed out above, a penetration enhancer is a chemical compound which, when included in a transdermal formulation, affects the skin of a human by increasing permeability of the skin to allow more of a drug to be absorbed in a shorter period of time. The penetration enhancer is normally contained in a formulation, called a transdermal composition, in combination with the appropriate drug to be delivered and other known components of the formulation. […] As mentioned herein, N-methylpyrrolidone is a known penetration enhancer. In studies leading to this invention using the prior art compound, N-methyl-2-pyrrolidone, it was discovered that a major metabolite of N-methylpyrrolidone which is excreted in the urine is 3-hydroxy-N-methyl-2-pyrrolidone. […] Further, 3-hydroxy-N-methylpyrrolidone is a "softer" xenobiotic to the body because no energy will be expended in metabolic processes after the compound's absorption into the systemic circulation. Also, in view of the apparent safety of N-methylpyrrolidone, its major metabolite, 3-hydroxy-N-methylpyrrolidone, would be expected to have an even lower toxicity.

[4] = animal and human experiments; cited from earlier work

Row | Structure (SMILES) | amount of Clioquinol penetrating the skin, times greater than with N-methylpyrrolidone [1] [times] | amount of Clioquinol penetrating the skin, times higher than the control [1] [times] | amount of I-131 Clioquinol penetrated, times greater than the control [1] [times] | amount of I-131 Clioquinol penetrated, times more than with N-methylpyrrolidone [1] [times] | effectiveness in enhancing the absorption of drugs (conclusion in words) [1] | percent of Clioquinol absorbed in the presence of enhancer [1] [%] | percent penetration of I-125 labeled Clioquinol through human skin (absorbed), with enhancer [1] [%] | percent penetration of [I-131]-Clioquinol through human skin (absorbed), with enhancer [1] [%] | relative order of enhancement of Clioquinol penetration [1] | percent penetration of I-125 labeled Clioquinol through human skin (absorbed), control [1] [%] | percent penetration of [I-131]-Clioquinol through human skin (absorbed), control [1] [%] | time in which the same amount of Clioquinol was absorbed, absence of enhancer [1] [h] | absorption through the skin ([2]; reason for choice as model drug) | penetration enhancement ([2]; literature) | major metabolite excreted in the urine [3] | irritation or sensitization potential [4]
1 | CN1CCC(O)C1=O (stereo not shown) [3-hydroxy-N-methylpyrrolidone, 3-hydroxy-N-methyl-2-pyrrolidone] | 1.3 | 1.8 | 3.9 | 1.5 | more effective than N-methylpyrrolidone | 19 | 40.0 | 10.2 | 3-hydroxy-N-methylpyrrolone >N-methylpyrrolone>control |  |  |  |  |  |  | 
2 | Oc1c(I)cc(Cl)c2cccnc12 [Clioquinol, 5-chloro-8-hydroxy-7-iodoquinoline] |  |  |  |  |  |  |  |  |  | 19.5 | 2.6 | 85 | absorbed very slowly through the skin |  |  | 
3 | CN1CCCC1=O [N-methylpyrrolidone, N-methyl-2-pyrrolidone] |  |  |  |  |  |  | 27.8 | 6.5 | N-methylpyrrolone>control |  |  |  |  | effective penetration enhancer | 3-hydroxy-N-methyl-2-pyrrolidone | very little irritation or sensitization potential
